Results on three compounds are retold here after patent publication US20200392107A1, “CYCLIC AMINE DERIVATIVE AND MEDICAL USE THEREOF” (Toray Industries, Inc., priority 2018, published 2020).

In test [1] the target is T1, RORγ-LBD (GST-fused ligand-binding domain of RORγ) / coactivator TRAP220/DRIP-2 (Homo sapiens, UniProt P51449).
T1 construct: purchased Invitrogen
T1 sequence (P51449 269-508 limits assumed): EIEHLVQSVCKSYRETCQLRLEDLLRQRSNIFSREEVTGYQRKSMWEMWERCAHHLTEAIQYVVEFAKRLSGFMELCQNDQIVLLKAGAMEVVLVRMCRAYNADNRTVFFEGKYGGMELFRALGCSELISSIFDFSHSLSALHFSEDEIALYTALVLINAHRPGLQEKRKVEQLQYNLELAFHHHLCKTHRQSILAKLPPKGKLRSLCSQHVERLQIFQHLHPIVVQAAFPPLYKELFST
Description: Inhibitory effect on RORγ-coactivator binding (LanthaScreen TR-FRET RORγ Coactivator Assay). As to conditions: at 33 μmol/L of the test compound; read-out: RORγ-coactivator binding inhibition rate (%). Type of test: biochemical. As to the method:
The inhibitory effect of the cyclic amine derivative (I) or a pharmacologically acceptable salt thereof on the binding between a ligand-binding domain of RORγ (hereinafter referred to as RORγ-LBD) and a coactivator was evaluated using Invitrogen's LanthaScreen™ TR-FRET Retinoid-Related Orphan Receptor (ROR) gamma Coactivator Assay kit utilizing time-resolved fluorescence energy transfer (TR-FRET).
A test compound was dissolved in DMSO and diluted with TR-FRET Coregulator Buffer D (Invitrogen) containing 5 mmol/L of DTT to have a final DMSO concentration of 1% before use. To each well of a 384-well black plate (Corning Inc.), 4 nmol/L of GST-fused RORγ-LBD (Invitrogen) diluted with the buffer mentioned above and the test compound were added. A well without addition of the test compound and without addition of GST-fused RORγ-LBD (background) and a well without addition of the test compound and with addition of GST-fused RORγ-LBD (control) were prepared. Next, 150 nmol/L of fluorescein-labeled TRAP220/DRIP-2 (Invitrogen) diluted with the buffer mentioned above and 32 nmol/L of terbium-labeled anti-GST antibody (Invitrogen) were added to each well. After incubating the plate at room temperature for 16 to 24 hours, the fluorescence at 495 nm and 520 nm when excited at 320 nm was measured for each well and the ratio (fluorescence value at 520 nm/fluorescence value at 495 nm) was calculated.
The fold change with addition of the test compound (ratio with addition of the test compound/ratio of the background), the fold change of the control (ratio of the control/ratio of the background), and the fold change of the background (ratio of the background/ratio of the background) were calculated, and then the inhibition rate of binding between RORγ-LBD and a coactivator (hereinafter referred to as RORγ-coactivator binding inhibition rate) (%) was calculated from Formula (1):
RORγ-coactivator binding inhibition rate (%)=(1−((Fold change with addition of the test compound)−(Fold change of the background))/((Fold change of the control)−(Fold change of the background)))×100 (1).
For orientation: TR-FRET usually uses a lanthanide donor and a delayed reading to cut background.

Test [2] has as its system oxazolone-induced mouse atopic dermatitis model. Briefly: Oxazolone-induced mouse atopic dermatitis model. The format is in vivo. As to conditions: 10 mg/kg orally once daily for 15 days from sensitization day; BALB/c mice; vs vehicle, P<0.05. As to the method:
Using increase in the ear thickness as an index of exacerbation of symptoms, the effect of the cyclic amine derivative (I) or a pharmacologically acceptable salt thereof in an oxazolone-induced mouse atopic dermatitis model was evaluated. The oxazolone-induced mouse atopic dermatitis model was prepared by a partially modified method by Nakajima et al. (Journal of Investigative Dermatology, 2014, Vol. 134, p. 2122-2130).
BALB/c mice (female, 7 weeks old) (Charles River Laboratories Japan, Inc.) were used at 8 weeks old after preliminary breeding. To the back of the mice, 25 μL of a 3 w/v % oxazolone solution dissolved in ethanol was applied to sensitize the mice. Every other day from 5 days to 13 days after the sensitization, 10 μL each of a 0.6 w/v % oxazolone solution dissolved in ethanol was applied to both sides of the right auricle of the sensitized mice to induce inflammation.
A test compound at a dose of 10 mg/kg was administered to the mice once daily for 15 days from the sensitization day to 14 days after sensitization. As the test compound, the compound of Example 1, the compound of Example 4, and the compound of Example 9 were used. The compound of Example 1, the compound of Example 4, and the compound of Example 9 were suspended in a 0.5 w/v % methylcellulose solution and orally administered. The group in which the compound of Example 1 was administered to mice was defined as the Example-1 compound administration group, the group in which the compound of Example 4 was administered was defined as the Example-4 compound administration group, and the group in which the compound of Example 9 was administered was defined as the Example-9 compound administration group. In the vehicle administration group, a vehicle of each test compound (0.5 w/v % methylcellulose solution) was similarly administered.
The right ear thickness before application of the oxazolone solution (before sensitization) on the sensitization day and the right ear thickness on the next day of final induction were measured with a digital micrometer (Mitutoyo Corporation). […]

With `CC(=O)N1CCCC[C@@H]1C(=O)Nc1cc(Cl)c2c(c1)CCCN2Cc1ccc(C(F)(F)F)cc1` [Example 1, (R)-1-acetyl-N-(8-chloro-1-(4-(trifluoromethyl)benzyl)-1,2,3,4-tetrahydroquinolin-6-yl)piperidine-2-carboxamide], in test [1], the inhibition – broadly, the relative decrease from the control value, in per cent – at 33 µM was found to be 96.9%. In addition, the “increase in the ear thickness (change in the ear thickness, next day of final induction)” value in test [2] is on record as “statistically significantly suppressed”.

Take `CC(=O)N1CCCC[C@@H]1C(=O)Nc1cc(Cl)c2c(c1)CCN2Cc1ccc(C(F)(F)F)cc1` [Example 4, (R)-1-acetyl-N-(7-chloro-1-(4-(trifluoromethyl)benzyl)indolin-5-yl)piperidine-2-carboxamide]: the inhibition at 33 µM in test [1] was 96.7%. Further, the “increase in the ear thickness (change in the ear thickness, next day of final induction)” value in test [2] is “statistically significantly suppressed”.

In the case of `CC(=O)N1CCCC[C@@H]1C(=O)Nc1cc(Cl)c2c(c1)CCN2C[C@H]1CC[C@H](C(F)(F)F)CC1` [Example 9, (R)-1-acetyl-N-(7-chloro-1-((trans-4-(trifluoromethyl)cyclo-hexyl)methyl)indolin-5-yl)piperidine-2-carboxamide], the inhibition at 33 µM in test [1] worked out at 96.8%. Besides, in test [2], the “increase in the ear thickness (change in the ear thickness, next day of final induction)” value is “statistically significantly suppressed”.
